Patent publication US9765018B2, “IDO inhibitors” (BRISTOL-MYERS SQUIBB COMPANY, priority 2013, dated 2017)

How the values were obtained:
IDO [1] = target: T1, IDO (Homo sapiens (Human), UniProt P14902); test: Kynurenine assay in IFN-γ-stimulated Hela cells; assay type: cell-based; settings: 20 h, read-out: Hela Kyurenine (IC50)
How it was run: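 Hela cells adhered 5-6 h, then received inhibitor (top dose 30 μM, 3-fold dilutions to 1.5 nM) plus 100 ng/mL human IFN-γ to induce IDO, 20 h at 37° C. TCA added, 30 min at 50° C hydrolyses N-formylkynurenine to kynurenine. Supernatant mixed with Ehrlich reagent, 10 min RT, absorbance 490 nm.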

IDO [2] = target: T1, IDO; test: LLE_IDO_ABS_DR (IDO assay, method not described)

T1 sequence (P14902 whole entry): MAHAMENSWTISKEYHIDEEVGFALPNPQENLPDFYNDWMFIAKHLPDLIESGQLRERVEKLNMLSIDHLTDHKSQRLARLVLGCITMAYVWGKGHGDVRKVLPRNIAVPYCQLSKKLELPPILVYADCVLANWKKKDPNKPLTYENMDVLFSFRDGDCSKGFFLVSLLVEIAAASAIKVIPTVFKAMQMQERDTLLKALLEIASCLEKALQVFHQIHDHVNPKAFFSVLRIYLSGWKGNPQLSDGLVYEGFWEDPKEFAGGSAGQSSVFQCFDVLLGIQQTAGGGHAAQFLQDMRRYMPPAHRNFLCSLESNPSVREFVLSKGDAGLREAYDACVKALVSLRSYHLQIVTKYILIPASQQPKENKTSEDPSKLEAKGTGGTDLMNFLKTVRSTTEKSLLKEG

SMILES | IC50 (IDO [1]) | IC50 (IDO [2])
COc1ccc(-c2ccc(O[C@@H]3CCCC[C@H]3C)c(NC(=O)Nc3ccccc3Cl)c2)cc1C(=O)O (relative stereo) [Example 132, 3′-(3-(2-chlorophenyl)ureido)-4-methoxy-4′-((trans)-2-methylcyclohexyloxy)biphenyl-3-carboxylic acid] | 990 nM | 1460 nM
COc1ccc(-c2ccc(O[C@@H]3CCCC[C@H]3C)c(NC(=O)Nc3cccc(C)c3)c2)cc1C(=O)O (relative stereo) [Example 138, 4-methoxy-4′-((trans)-2-methylcyclohexyloxy)-3′-(3-m-tolylureido)biphenyl-3-carboxylic acid] | 390 nM | 2340 nM
COc1ccc(-c2cnc(Oc3cccc4c3CCCC4)c(NC(=O)Nc3ccccc3Cl)c2C)cc1C(=O)O [Example 3, 5-(5-(3-(2-Chlorophenyl)ureido)-4-methyl-6-(5,6,7,8-tetrahydronaphthalen-1-yloxy)pyridin-3-yl)-2-methoxybenzoic acid] | 3380 nM | 4810 nM
COc1ccc(-c2ccc(Oc3ccccc3C(C)(C)C)c(NC(=O)Nc3ccc(C(F)(F)F)cc3)c2)cc1C(=O)O [Example 43, 4′-(2-tert-butylphenoxy)-4-methoxy-3′-(3-(4-(trifluoromethyl)phenyl)ureido)biphenyl-3-carboxylic acid] | 440 nM | 10000 nM
COc1ccc(-c2ccc(Oc3ccccc3C(C)(C)C)c(NC(=O)Nc3cccc(C)c3)c2)cc1C(=O)O [Example 45, 4′-(2-tert-butylphenoxy)-4-methoxy-3′-(3-m-tolylureido)biphenyl-3-carboxylic acid] | 150 nM | 390 nM
COc1ccc(-c2ccc(Oc3ccccc3Cl)c(NC(=O)Nc3ccccc3Cl)c2)cc1C(=O)O [Example 49, 4′-(2-chlorophenoxy)-3′-(3-(2-chlorophenyl)ureido)-4-methoxybiphenyl-3-carboxylic acid] | 590 nM | 2630 nM
COc1ccc(-c2ccc(Oc3c(C)cccc3C(C)(C)C)c(NC(=O)Nc3ccccc3Cl)c2)cc1C(=O)O [Example 54, 4′-(2-tert-butyl-6-methylphenoxy)-3′-(3-(2-chlorophenyl)ureido)-4-methoxybiphenyl-3-carboxylic acid] | 510 nM | 2540 nM
CCc1ccccc1Oc1ccc(-c2ccc(OC)c(C(=O)O)c2)cc1NC(=O)Nc1cccc(C)c1 [Example 57, 4′-(2-ethylphenoxy)-4-methoxy-3′-(3-m-tolylureido)biphenyl-3-carboxylic acid] | 130 nM | 390 nM
CCc1ccccc1Oc1ccc(-c2ccc(OC)c(C(=O)O)c2)cc1NC(=O)Nc1cccc(Cl)c1 [Example 58, 3′-(3-(3-chlorophenyl)ureido)-4′-(2-ethylphenoxy)-4-methoxybiphenyl-3-carboxylic acid] | 240 nM | 770 nM
COc1ccc(-c2ccc(Oc3c(C)cccc3C(C)(C)C)c(NC(=O)Nc3cccc(C)c3)c2)cc1C(=O)O [Example 60, 4′-(2-tert-butyl-6-methylphenoxy)-4-methoxy-3′-(3-m-tolylureido)biphenyl-3-carboxylic acid] | 310 nM | 1150 nM
C=CC(c1ccccc1)c1cc(-c2ccccc2-c2nnn[nH]2)cc(NC(=O)Nc2ccc(C)cc2)c1OCCC(F)(F)F (centres unmarked) [Example 290] |  | 1490 nM
C=CC(c1ccccc1)c1cc(-c2ccccc2C(=O)O)cc(NC(=O)Nc2ccc(C)cc2)c1OC1CCC(F)(F)CC1 (centres unmarked) [Example 291] |  | 730 nM
C=CC(c1ccccc1)c1cc(-c2cc(F)ccc2C(=O)O)cc(NC(=O)Nc2ccc(C)cc2)c1OC1CCC(F)(F)CC1 (centres unmarked) [Example 292] |  | 3350 nM
Cc1ccc(NC(=O)Nc2cc(-c3ccccc3C(=O)O)ccc2OCc2ccccc2)cc1 [Example 294] |  | 520 nM
C=CC(c1ccccc1)c1cc(-c2ccccc2-c2nnn[nH]2)cc(NC(=O)Nc2ccc(C)cc2)c1OCC(C)C (centres unmarked) [Example 299] |  | 100 nM
Cc1ccc(NC(=O)Nc2cc(-c3cc(F)ccc3C(=O)O)cc(C/C=C/C(F)(F)F)c2OCCC(F)(F)F)cc1 [Example 302] |  | 100 nM

The next lines start with the values.

IC50 (IDO [1]) | IC50 (IDO [2]) | SMILES
 | 160 nM | Cc1ccc(NC(=O)Nc2cc(-c3ccccc3C(=O)O)cc(C/C=C/C(F)(F)F)c2OCCC(F)(F)F)cc1 [Example 303]
 | 820 nM | O=C(Nc1ccccc1F)Nc1cc(-c2ccccc2C(=O)O)cc(/C=C/C=C(F)F)c1OCCC(F)(F)F [Example 305]
 | 5450 nM | CCCC(Oc1ccc(-c2cc(F)ccc2C(=O)O)cc1NC(=O)Nc1ccc(C)cc1)c1ccccc1Cl (centres unmarked) [Example 306]
 | 40 nM | Cc1ccc(NC(=O)Nc2cc(-c3cc(F)ccc3C(=O)O)ccc2OC(CCN2CCOCC2)c2ccccc2)cc1 (centres unmarked) [Example 307]
 | 860 nM | CCCC(Oc1ccc(-c2ccccc2-c2nnn[nH]2)cc1NC(=O)Nc1ccc(C)cc1)c1ccc(Cl)cc1 (centres unmarked) [Example 308]
 | 90 nM | Cc1ccc(NC(=O)Nc2cc(-c3cc(F)ccc3C(=O)O)ccc2OC(CCC(F)(F)F)c2ccccc2)cc1 (centres unmarked) [Example 309]
 | 1720 nM | Cc1ccc(NC(=O)Nc2cc(-c3ccccc3-c3nnn[nH]3)ccc2OC(CCC(F)(F)F)c2ccccc2)cc1 (centres unmarked) [Example 310]
 | 200 nM | Cc1ccc(NC(=O)Nc2cc(-c3cc(F)ccc3C(=O)O)ccc2OC(CCC(F)(F)F)c2ccc(Cl)cc2)cc1 (centres unmarked) [Example 311]
 | 80 nM | Cc1ccc(NC(=O)Nc2cc(-c3ccccc3-c3nnn[nH]3)ccc2OC(CCC(F)(F)F)c2ccc(Cl)cc2)cc1 (centres unmarked) [Example 312]
 | 2360 nM | O=C(Nc1ccc(Cl)cc1)Nc1cc(-c2ccccc2-c2nnn[nH]2)cc(CC2CC2)c1OCCC(F)(F)F [Example 314, 1-(4-chlorophenyl)-3-(5-(cyclopropylmethyl)-2′-(1H-tetrazol-5-yl)-4-(3,3,3-trifluoropropoxy)-[1,1′-biphenyl]-3-yl)urea]
 | 80 nM | Cc1cccc(NC(=O)Nc2cc(-c3ccccc3-c3nnn[nH]3)cc(CC3CC3)c2OCCC(F)(F)F)c1 [Example 315]
 | 330 nM | Cc1ccc(NC(=O)Nc2cc(-c3ccccc3-c3nnn[nH]3)cc(CC3CC3)c2OCCC(F)(F)F)cc1 [Example 317]
 | 320 nM | O=C(Nc1ccc(F)cc1F)Nc1cc(-c2ccccc2-c2nnn[nH]2)cc(CC2CC2)c1OCCC(F)(F)F [Example 318]
 | 220 nM | O=C(Nc1ccc(OC(F)(F)F)cc1)Nc1cc(-c2ccccc2-c2nnn[nH]2)cc(CC2CC2)c1Oc1ccccc1 [Example 320]
 | 460 nM | Cc1ccc(NC(=O)Nc2cc(-c3ccccc3-c3nnn[nH]3)cc(CC3CC3)c2Oc2ccccc2)cc1 [Example 322]
 | 1070 nM | Cc1ccc(NC(=O)Nc2cc(-c3ccccc3-c3nnn[nH]3)cc(CC3CC3)c2OCC2CC2)cc1 [Example 324]
 | 2970 nM | Cc1cccc(NC(=O)Nc2cc(-c3ccccc3-c3nnn[nH]3)cc(CC3CC3)c2OCC2CC2)c1 [Example 325]
 | 130 nM | Cc1cccc(NC(=O)Nc2cc(-c3ccccc3-c3nnn[nH]3)cc(CC3CC3)c2OC2CCOCC2)c1 [Example 326]
 | 310 nM | O=C(Nc1ccc(Cl)cc1)Nc1cc(-c2ccccc2-c2nnn[nH]2)cc(CC2CC2)c1OCC1CC1 [Example 327]
 | 130 nM | O=C(Nc1ccc(C2CC2)cc1)Nc1cc(-c2ccccc2-c2nnn[nH]2)cc(CC2CC2)c1OC1CCOCC1 [Example 328]
 | 1660 nM | O=C(Nc1ccc(F)cc1F)Nc1cc(-c2ccccc2-c2nnn[nH]2)cc(CC2CC2)c1Oc1ccccc1 [Example 329]
